Laboratory results reported in paper PMC6437697 (Journal of Medicinal Chemistry, 2019).

Legend:
Assay in all cases: KINOMEscan
Type in all cases: binding
Settings in all cases: read-out: % control activity remaining
[1] = target: T1, ABL1(Q252H)-nonphosphorylated (Homo sapiens, UniProt P00519, Q252H)
T1 construct: purchased Eurofins DiscoverX KINOMEscan

BMPR1B = target: T2, BMPR1B (Homo sapiens, UniProt O00238)
T2 construct: purchased Eurofins DiscoverX KINOMEscan

DMPK2 = target: T3, DMPK2 (Homo sapiens, UniProt Q6DT37)
T3 construct: purchased Eurofins DiscoverX KINOMEscan

EPHA3 = target: T4, EPHA3 (Homo sapiens, UniProt P29320)
T4 construct: purchased Eurofins DiscoverX KINOMEscan
T4 sequence (P29320 21-983): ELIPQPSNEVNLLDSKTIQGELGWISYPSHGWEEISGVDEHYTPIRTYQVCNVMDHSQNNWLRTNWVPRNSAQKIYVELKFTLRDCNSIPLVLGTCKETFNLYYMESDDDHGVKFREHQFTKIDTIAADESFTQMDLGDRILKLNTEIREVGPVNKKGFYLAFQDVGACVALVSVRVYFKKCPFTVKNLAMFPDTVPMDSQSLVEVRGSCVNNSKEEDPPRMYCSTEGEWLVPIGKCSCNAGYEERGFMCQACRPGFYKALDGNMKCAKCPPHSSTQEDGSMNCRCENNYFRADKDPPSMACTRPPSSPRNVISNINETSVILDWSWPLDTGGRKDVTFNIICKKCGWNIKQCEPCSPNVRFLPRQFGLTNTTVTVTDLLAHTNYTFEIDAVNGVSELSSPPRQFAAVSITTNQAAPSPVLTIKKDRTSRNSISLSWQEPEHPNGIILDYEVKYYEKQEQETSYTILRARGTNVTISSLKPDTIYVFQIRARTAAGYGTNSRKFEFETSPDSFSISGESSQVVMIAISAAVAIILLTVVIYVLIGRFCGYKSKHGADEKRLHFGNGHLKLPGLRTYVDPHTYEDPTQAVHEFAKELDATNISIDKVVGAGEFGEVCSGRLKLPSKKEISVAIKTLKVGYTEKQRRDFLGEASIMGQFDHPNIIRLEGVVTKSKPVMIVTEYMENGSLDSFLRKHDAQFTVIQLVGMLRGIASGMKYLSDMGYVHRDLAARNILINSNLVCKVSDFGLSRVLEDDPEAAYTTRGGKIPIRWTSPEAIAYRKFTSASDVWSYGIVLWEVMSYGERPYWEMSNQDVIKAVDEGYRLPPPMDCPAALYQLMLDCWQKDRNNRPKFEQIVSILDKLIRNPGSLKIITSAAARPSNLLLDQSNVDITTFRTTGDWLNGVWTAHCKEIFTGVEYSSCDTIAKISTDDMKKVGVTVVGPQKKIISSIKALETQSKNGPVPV

GRK4 = target: T5, GRK4 (Homo sapiens, UniProt P32298)
T5 construct: purchased Eurofins DiscoverX KINOMEscan

ICK = target: T6, ICK (Homo sapiens, UniProt Q9UPZ9)
T6 construct: purchased Eurofins DiscoverX KINOMEscan
T6 sequence (Q9UPZ9 1-632): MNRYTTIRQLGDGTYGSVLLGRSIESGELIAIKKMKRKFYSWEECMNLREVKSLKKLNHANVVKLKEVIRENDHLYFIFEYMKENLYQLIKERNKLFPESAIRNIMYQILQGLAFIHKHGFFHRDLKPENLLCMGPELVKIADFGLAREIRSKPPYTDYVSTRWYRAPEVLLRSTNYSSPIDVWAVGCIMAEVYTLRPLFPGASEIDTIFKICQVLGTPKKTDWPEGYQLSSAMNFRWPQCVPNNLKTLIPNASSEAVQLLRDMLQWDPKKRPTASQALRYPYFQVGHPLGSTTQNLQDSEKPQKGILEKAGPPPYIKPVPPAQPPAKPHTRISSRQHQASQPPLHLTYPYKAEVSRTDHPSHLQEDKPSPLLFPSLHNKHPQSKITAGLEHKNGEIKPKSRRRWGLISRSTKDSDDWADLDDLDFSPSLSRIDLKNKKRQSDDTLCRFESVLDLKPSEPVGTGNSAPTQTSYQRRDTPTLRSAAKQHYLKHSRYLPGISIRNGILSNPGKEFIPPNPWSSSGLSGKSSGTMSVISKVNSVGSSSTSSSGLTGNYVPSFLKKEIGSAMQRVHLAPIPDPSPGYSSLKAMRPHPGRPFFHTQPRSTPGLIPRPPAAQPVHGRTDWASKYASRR

INSRR = target: T7, INSRR (Homo sapiens, UniProt P14616)
T7 construct: purchased Eurofins DiscoverX KINOMEscan

LCK = target: T8, LCK (Homo sapiens, UniProt P06239)
T8 construct: purchased Eurofins DiscoverX KINOMEscan

NEK11 = target: T9, NEK11 (Homo sapiens, UniProt Q8NG66)
T9 construct: purchased Eurofins DiscoverX KINOMEscan
T9 sequence (Q8NG66 1-645): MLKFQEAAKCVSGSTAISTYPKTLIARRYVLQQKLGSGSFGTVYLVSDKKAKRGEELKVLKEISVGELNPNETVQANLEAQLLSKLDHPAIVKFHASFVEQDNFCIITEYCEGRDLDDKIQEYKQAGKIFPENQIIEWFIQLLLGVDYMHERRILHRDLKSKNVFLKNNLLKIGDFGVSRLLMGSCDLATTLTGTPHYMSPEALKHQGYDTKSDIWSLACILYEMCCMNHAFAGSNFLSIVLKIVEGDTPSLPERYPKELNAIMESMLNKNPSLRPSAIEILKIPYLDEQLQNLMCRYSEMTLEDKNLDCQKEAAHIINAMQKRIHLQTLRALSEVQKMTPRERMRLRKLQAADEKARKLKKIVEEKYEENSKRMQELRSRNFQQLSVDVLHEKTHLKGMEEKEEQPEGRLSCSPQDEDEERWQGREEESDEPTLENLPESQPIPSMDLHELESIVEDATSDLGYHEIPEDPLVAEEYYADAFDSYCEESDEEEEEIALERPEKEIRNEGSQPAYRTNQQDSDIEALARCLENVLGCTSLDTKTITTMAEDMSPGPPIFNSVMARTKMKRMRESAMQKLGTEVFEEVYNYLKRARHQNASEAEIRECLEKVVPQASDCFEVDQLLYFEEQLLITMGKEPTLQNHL

OSR1 = target: T10, OSR1 (Homo sapiens, UniProt O95747)
T10 construct: purchased Eurofins DiscoverX KINOMEscan

PIK3CA = target: T11, PIK3CA (Homo sapiens, UniProt P42336)
T11 construct: purchased Eurofins DiscoverX KINOMEscan

PIP5K1A = target: T12, PIP5K1A (Homo sapiens, UniProt Q99755)
T12 construct: purchased Eurofins DiscoverX KINOMEscan

PKN2 = target: T13, PKN2 (Homo sapiens, UniProt Q16513)
T13 construct: purchased Eurofins DiscoverX KINOMEscan

[2] = target: T14, RSK1(Kin.Dom.1-N-terminal) (Homo sapiens, UniProt Q15418)
T14 construct: RSK1(Kin.Dom.1-N-terminal); purchased Eurofins DiscoverX KINOMEscan
T14 sequence (Q15418 62-321 limits assumed): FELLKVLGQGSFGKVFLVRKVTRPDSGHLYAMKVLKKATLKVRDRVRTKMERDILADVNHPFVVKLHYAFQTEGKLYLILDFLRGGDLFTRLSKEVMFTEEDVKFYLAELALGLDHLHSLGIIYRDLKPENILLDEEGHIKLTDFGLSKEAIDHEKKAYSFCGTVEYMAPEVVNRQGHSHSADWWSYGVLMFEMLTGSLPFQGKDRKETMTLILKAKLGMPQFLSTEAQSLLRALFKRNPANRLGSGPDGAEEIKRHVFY

T3 sequence (Q6DT37 whole entry): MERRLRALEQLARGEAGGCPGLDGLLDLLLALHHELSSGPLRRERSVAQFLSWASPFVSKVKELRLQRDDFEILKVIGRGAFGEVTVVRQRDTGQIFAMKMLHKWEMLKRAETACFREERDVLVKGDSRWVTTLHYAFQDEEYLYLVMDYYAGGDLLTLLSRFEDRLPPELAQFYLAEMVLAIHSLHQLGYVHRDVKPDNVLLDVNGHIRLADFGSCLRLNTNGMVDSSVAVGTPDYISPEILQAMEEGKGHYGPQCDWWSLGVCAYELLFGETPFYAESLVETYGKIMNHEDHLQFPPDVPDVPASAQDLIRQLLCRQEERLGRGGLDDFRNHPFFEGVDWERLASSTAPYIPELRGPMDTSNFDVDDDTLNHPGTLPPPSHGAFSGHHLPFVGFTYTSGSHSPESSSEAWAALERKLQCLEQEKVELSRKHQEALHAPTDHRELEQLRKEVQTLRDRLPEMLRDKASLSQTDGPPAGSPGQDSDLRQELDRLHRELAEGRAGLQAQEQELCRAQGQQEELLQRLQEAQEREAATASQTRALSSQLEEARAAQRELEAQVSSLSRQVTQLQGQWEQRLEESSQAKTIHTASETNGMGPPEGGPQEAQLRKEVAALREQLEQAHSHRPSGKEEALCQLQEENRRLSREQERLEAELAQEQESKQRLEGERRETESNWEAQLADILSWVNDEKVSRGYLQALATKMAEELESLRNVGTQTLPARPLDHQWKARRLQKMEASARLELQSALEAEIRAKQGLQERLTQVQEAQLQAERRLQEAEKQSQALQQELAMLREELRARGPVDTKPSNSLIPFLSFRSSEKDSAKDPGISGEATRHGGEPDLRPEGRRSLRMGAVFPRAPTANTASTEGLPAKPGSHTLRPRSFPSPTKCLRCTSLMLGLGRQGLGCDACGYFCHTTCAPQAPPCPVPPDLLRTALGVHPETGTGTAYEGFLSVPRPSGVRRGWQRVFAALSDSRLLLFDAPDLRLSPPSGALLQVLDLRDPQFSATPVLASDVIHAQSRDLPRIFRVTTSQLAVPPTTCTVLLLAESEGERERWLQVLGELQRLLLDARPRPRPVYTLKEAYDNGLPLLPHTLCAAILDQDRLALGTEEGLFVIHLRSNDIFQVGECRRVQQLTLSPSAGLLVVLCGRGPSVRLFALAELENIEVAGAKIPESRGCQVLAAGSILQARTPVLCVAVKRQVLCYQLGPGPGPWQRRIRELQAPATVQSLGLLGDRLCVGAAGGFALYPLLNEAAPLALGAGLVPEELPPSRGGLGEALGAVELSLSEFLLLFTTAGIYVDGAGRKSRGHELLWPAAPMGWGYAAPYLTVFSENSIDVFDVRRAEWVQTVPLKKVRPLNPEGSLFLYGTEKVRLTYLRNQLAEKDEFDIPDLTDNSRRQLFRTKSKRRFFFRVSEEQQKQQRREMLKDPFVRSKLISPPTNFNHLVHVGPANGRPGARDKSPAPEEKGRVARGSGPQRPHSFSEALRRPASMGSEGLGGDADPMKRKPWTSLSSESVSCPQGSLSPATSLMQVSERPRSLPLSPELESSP
T5 sequence (P32298 whole entry): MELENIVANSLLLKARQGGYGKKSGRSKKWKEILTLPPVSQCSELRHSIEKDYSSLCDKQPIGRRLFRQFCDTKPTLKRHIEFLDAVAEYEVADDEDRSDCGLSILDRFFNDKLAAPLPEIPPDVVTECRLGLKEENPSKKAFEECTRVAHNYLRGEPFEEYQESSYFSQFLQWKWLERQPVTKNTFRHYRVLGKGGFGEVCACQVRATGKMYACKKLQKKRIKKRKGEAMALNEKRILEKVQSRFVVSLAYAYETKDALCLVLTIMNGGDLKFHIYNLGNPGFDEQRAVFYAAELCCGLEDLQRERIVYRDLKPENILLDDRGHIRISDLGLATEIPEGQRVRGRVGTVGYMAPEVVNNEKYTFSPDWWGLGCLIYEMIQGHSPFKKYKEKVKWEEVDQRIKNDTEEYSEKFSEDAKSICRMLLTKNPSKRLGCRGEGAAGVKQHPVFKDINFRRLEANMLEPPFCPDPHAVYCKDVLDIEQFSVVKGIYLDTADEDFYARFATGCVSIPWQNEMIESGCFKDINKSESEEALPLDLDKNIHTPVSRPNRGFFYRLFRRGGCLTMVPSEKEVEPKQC
T13 sequence (Q16513 whole entry): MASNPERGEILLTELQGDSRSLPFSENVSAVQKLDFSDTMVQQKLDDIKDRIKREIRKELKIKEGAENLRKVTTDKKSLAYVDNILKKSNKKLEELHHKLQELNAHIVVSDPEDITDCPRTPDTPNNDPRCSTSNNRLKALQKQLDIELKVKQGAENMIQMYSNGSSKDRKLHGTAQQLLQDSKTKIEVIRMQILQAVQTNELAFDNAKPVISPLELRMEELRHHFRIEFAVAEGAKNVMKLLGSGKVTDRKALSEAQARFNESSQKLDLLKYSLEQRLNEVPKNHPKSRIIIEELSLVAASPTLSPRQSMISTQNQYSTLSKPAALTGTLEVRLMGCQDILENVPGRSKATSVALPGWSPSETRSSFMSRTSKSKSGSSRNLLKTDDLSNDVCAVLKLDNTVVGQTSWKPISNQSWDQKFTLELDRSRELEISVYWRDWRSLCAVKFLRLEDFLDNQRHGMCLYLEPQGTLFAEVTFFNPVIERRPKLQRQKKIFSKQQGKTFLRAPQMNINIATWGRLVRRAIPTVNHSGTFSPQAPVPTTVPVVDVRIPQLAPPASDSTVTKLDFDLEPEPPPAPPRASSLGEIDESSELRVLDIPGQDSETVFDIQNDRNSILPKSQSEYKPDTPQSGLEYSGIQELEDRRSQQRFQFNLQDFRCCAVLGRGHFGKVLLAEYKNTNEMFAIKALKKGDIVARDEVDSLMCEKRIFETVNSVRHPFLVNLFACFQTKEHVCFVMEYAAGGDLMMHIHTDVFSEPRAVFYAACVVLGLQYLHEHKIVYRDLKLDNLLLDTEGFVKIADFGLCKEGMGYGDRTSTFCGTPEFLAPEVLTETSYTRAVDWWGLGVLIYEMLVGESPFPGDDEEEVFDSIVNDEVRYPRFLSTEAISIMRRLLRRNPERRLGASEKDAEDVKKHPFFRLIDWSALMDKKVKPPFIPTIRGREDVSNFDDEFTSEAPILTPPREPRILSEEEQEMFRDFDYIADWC
T11 sequence (P42336 whole entry): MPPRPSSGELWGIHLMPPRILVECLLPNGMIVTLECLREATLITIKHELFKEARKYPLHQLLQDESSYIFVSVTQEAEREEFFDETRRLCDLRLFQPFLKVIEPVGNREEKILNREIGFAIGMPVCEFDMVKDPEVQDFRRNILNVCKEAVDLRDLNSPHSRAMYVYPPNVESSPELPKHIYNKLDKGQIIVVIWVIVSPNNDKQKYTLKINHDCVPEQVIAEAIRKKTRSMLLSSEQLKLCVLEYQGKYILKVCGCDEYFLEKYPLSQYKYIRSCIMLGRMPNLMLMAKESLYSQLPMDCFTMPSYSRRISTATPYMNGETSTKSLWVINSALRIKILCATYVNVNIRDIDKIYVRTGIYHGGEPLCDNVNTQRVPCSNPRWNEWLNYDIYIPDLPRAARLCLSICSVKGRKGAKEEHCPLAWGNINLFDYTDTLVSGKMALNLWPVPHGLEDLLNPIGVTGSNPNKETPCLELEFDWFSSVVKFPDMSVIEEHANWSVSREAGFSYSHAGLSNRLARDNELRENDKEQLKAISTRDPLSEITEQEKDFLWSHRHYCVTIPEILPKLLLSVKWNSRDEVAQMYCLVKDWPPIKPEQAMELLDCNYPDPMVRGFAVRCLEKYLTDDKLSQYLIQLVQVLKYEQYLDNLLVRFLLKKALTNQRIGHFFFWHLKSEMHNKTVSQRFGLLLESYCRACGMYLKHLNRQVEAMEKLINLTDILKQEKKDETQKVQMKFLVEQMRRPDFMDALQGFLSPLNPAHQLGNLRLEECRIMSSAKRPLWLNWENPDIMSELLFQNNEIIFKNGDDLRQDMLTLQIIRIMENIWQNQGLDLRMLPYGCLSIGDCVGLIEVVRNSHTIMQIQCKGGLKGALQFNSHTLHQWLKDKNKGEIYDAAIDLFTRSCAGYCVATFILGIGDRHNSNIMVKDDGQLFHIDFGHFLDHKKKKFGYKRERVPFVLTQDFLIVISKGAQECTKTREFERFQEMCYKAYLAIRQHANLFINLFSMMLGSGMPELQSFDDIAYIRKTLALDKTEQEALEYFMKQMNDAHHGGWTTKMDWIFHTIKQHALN
T8 sequence (P06239 whole entry): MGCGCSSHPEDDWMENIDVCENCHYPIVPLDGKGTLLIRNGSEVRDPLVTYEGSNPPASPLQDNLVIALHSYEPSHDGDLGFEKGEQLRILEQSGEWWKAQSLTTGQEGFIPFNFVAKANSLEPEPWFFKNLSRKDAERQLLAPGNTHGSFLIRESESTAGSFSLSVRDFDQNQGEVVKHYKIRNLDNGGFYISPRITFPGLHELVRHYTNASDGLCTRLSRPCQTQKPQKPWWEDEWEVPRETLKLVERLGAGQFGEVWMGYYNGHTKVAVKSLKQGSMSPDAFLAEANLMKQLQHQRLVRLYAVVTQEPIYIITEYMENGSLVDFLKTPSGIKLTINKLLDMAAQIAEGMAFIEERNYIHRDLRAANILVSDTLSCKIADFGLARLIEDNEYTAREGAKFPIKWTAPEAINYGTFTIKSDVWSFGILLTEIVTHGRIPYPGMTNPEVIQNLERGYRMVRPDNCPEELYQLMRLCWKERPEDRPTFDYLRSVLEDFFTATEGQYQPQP

Compound	remaining binding at 1 µM [1]	remaining binding at 1 µM (BMPR1B)	remaining binding at 1 µM (DMPK2)	remaining binding at 1 µM (EPHA3)	remaining binding at 1 µM (GRK4)	remaining binding at 1 µM (ICK)	remaining binding at 1 µM (INSRR)	remaining binding at 1 µM (LCK)	remaining binding at 1 µM (NEK11)	remaining binding at 1 µM (OSR1)	remaining binding at 1 µM (PIK3CA)	remaining binding at 1 µM (PIP5K1A)	remaining binding at 1 µM (PKN2)	remaining binding at 1 µM [2]
Clc1cc(NCC2CC2)c2ncc(-c3ccc4[nH]ncc4c3)n2n1 [compound 2, 6-Chloro-N-(cyclopropylmethyl)-3-(1H-indazol-5-yl)imidazo[1,2-b]pyridazin-8-amine]	93%	100%	62%	78%	42%	80%	96%	100%	88%	79%	72%	100%	100%	72%
O=C(CN1CCOCC1)N[C@H]1CC[C@H](Nc2cc(Cl)nn3c(-c4ccc5[nH]ncc5c4)cnc23)CC1 [compound 26]	48%	100%	81%	88%	79%	74%	85%	87%	100%	99%	97%	80%	100%	54%
CN1CCC(CNc2cc(Cl)nn3c(-c4cc5nc(Nc6ccccc6)[nH]c5cc4F)cnc23)CC1 [compound 31, 6-Chloro-3-(6-fluoro-2-(phenylamino)-1H-benzo[d]imidazol-5-yl)-N-((1-methylpiperidin-4-yl)methyl)imidazo[1,2-b]pyridazin-8-amine]	64%	67%	100%	100%	100%	97%	100%	82%	92%	100%	90%	91%	98%	100%
